# Test system: GDF8 signaling (p-SMAD-3 (Ser423/425))
# Assay: AlphaScreen SureFire SMAD3 (p-Ser423/425) assay, GDF8-stimulated cells (GDF pSMAD)
# Type: cell-based
# Settings: Mus musculus, MPC-11, MPC11; GDF8-stimulated; p-SMAD3 AlphaScreen; read-out: GDF pSMAD (MPC11) (inhibition of GDF8 signaling)
row,SMILES,IC50
1,"Cc1ccc(F)c(-c2ncccc2-c2ccn3ncnc3c2)c1 [compound 737, 7-(2-(2-Fluoro-5-methylphenyl)pyridin-3-yl)-[1,2,4]triazolo[1,5-a]pyridine]",0.26 µM
2,"Cc1cc(-c2ncccc2-c2ccc3nccnc3n2)ccc1F [compound 738, 6-(2-(4-Fluoro-3-methylphenyl)pyridin-3-yl)pyrido[2,3-b]pyrazine]",1.38 µM
3,"Clc1cccc(-c2ncccc2-c2ccc3nccnc3n2)c1 [compound 739, 6-(2-(3-Chlorophenyl)pyridin-3-yl)pyrido[2,3-b]pyrazine]",2.32 µM
4,"Fc1ccc(-c2ncccc2-c2ccc3nccnc3n2)cc1Cl [compound 740, 6-(2-(3-Chloro-4-fluorophenyl)pyridin-3-yl)pyrido[2,3-b]pyrazine]",9.5 µM
5,"Fc1cc(F)c(-c2ncccc2-c2ccc3nccnc3n2)cc1F [compound 741, 6-(2-(2,4,5-Trifluorophenyl)pyridin-3-yl)pyrido[2,3-b]pyrazine]",10 µM
6,"Fc1ccc(Cl)cc1-c1ncccc1-c1ccc2nccnc2n1 [compound 742, 6-(2-(5-Chloro-2-fluorophenyl)pyridin-3-yl)pyrido[2,3-b]pyrazine]",1.82 µM
7,"Fc1cc(F)c(-c2ncccc2-c2ccc3nccnc3n2)cc1Cl [compound 743, 6-(2-(5-Chloro-2,4-difluorophenyl)pyridin-3-yl)pyrido[2,3-b]pyrazine]",0.638 µM
8,"Clc1cccc(-c2ncccc2-c2ccc3ncnn3c2)c1 [compound 746, 6-(2-(3-Chlorophenyl)pyridin-3-yl)-[1,2,4]triazolo[1,5-a]pyridine]",0.566 µM
9,"Fc1ccc(Cl)cc1-c1ncccc1-c1ccc2ncnn2c1 [compound 747, 6-(2-(5-Chloro-2-fluorophenyl)pyridin-3-yl)-[1,2,4]triazolo[1,5-a]pyridine]",0.284 µM
10,"Cc1ccc(F)c(-c2ncccc2-c2ccc3ncnn3c2)c1 [compound 748, 6-(2-(2-Fluoro-5-methylphenyl)pyridin-3-yl)-[1,2,4]triazolo[1,5-a]pyridine]",0.447 µM
11,"Fc1cc(F)c(-c2ncccc2-c2ccc3ncnn3c2)cc1Cl [compound 749, 6-(2-(5-Chloro-2,4-difluorophenyl)pyridin-3-yl)-[1,2,4]triazolo[1,5-a]pyridine]",0.298 µM
12,"Cc1cc(-c2ncccc2-c2ccn3nccc3c2)ccc1F [compound 756, 5-(2-(4-Fluoro-3-methylphenyl)pyridin-3-yl)pyrazolo[1,5-a]pyridine]",0.364 µM
13,"Cc1cccc(-c2ncccc2-c2ccn3nccc3c2)c1 [compound 757, 5-(2-(m-Tolyl)pyridin-3-yl)pyrazolo[1,5-a]pyridine]",0.127 µM
14,"Fc1ccc(-c2ncccc2-c2ccn3nccc3c2)cc1Cl [compound 758, 5-(2-(3-Chloro-4-fluorophenyl)pyridin-3-yl)pyrazolo[1,5-a]pyridine]",0.426 µM
15,"Clc1cccc(-c2ncccc2-c2ccn3nccc3c2)c1 [compound 759, 5-(2-(3-Chlorophenyl)pyridin-3-yl)pyrazolo[1,5-a]pyridine]",0.175 µM
16,"Fc1cc(F)c(-c2ncccc2-c2ccn3nccc3c2)cc1Cl [compound 760, 5-(2-(5-Chloro-2,4-difluorophenyl)pyridin-3-yl)pyrazolo[1,5-a]pyridine]",0.274 µM
17,"Fc1ccc(Cl)cc1-c1ncccc1-c1ccn2nccc2c1 [compound 761, 5-(2-(5-Chloro-2-fluorophenyl)pyridin-3-yl)pyrazolo[1,5-a]pyridine]",0.131 µM
18,"CC(=O)c1cnc2ccc(-c3cccnc3-c3ccc(F)c(Cl)c3)cn12 [compound 762, 1-(6-(2-(3-Chloro-4-fluorophenyl)pyridin-3-yl)imidazo[1,2-a]pyridin-3-yl)ethan-1-one]",1.19 µM

row,SMILES,IC50
1,"CC(=O)c1cnc2ccc(-c3cccnc3-c3cccc(Cl)c3)cn12 [compound 763, 1-(6-(2-(3-Chlorophenyl)pyridin-3-yl)imidazo[1,2-a]pyridin-3-yl)ethan-1-one]",0.52 µM
2,"Cc1cnc2ccc(-c3cccnc3-c3ccc(F)c(Cl)c3)cn12 [compound 764, 6-(2-(3-Chloro-4-fluorophenyl)pyridin-3-yl)-3-methylimidazo[1,2-a]pyridine]",0.275 µM
3,"Cc1cnc2ccc(-c3cccnc3-c3cccc(Cl)c3)cn12 [compound 765, 6-(2-(3-Chlorophenyl)pyridin-3-yl)-3-methylimidazo[1,2-a]pyridine]",0.096 µM
4,"Cc1cnc2ccc(-c3cccnc3-c3cc(Cl)c(F)cc3F)cn12 [compound 766, 6-(2-(5-Chloro-2,4-difluorophenyl)pyridin-3-yl)-3-methylimidazo[1,2-a]pyridine]",0.105 µM
5,"Cc1cnc2ccc(-c3cccnc3-c3cc(Cl)ccc3F)cn12 [compound 767, 6-(2-(5-Chloro-2-fluorophenyl)pyridin-3-yl)-3-methylimidazo[1,2-a]pyridine]",0.227 µM
6,"Cn1cnc2ccc(-c3cccnc3-c3ccc(F)c(Cl)c3)cc21 [compound 768, 6-(2-(3-Chloro-4-fluorophenyl)pyridin-3-yl)-1-methyl-1H-benzo[d]imidazole]",0.327 µM
7,"Cn1cnc2ccc(-c3cccnc3-c3cccc(Cl)c3)cc21 [compound 769, 6-(2-(3-Chlorophenyl)pyridin-3-yl)-1-methyl-1H-benzo[d]imidazole]",0.153 µM
8,"Fc1cc(Cl)cc(-c2ncccc2-c2ccc3ncnn3c2)c1 [compound 770, 6-(2-(3-Chloro-5-fluorophenyl)pyridin-3-yl)-[1,2,4]triazolo[1,5-a]pyridine]",1.31 µM
9,"Clc1ccc(Cl)c(-c2ncccc2-c2ccc3ncnn3c2)c1 [compound 771, 6-(2-(2,5-Dichlorophenyl)pyridin-3-yl)-[1,2,4]triazolo[1,5-a]pyridine]",1.11 µM
10,"Fc1c(Cl)cccc1-c1ncccc1-c1ccc2ncnn2c1 [compound 772, 6-(2-(3-Chloro-2-fluorophenyl)pyridin-3-yl)-[1,2,4]triazolo[1,5-a]pyridine]",4.95 µM
11,"Cc1c(Cl)cccc1-c1ncccc1-c1ccc2ncnn2c1 [compound 773, 6-(2-(3-Chloro-2-methylphenyl)pyridin-3-yl)-[1,2,4]triazolo[1,5-a]pyridine]",8.48 µM
12,"Cc1cc(Cl)cc(-c2ncccc2-c2ccc3ncnn3c2)c1 [compound 775, 6-(2-(3-Chloro-5-methylphenyl)pyridin-3-yl)-[1,2,4]triazolo[1,5-a]pyridine]",3.96 µM
13,"COc1cccc(-c2ncccc2-c2ccc3ncnn3c2)c1 [compound 779, 6-(2-(3-Methoxyphenyl)pyridin-3-yl)-[1,2,4]triazolo[1,5-a]pyridine]",0.761 µM
14,"FC(F)(F)Oc1cccc(-c2ncccc2-c2ccc3ncnn3c2)c1 [compound 780, 6-(2-(3-(Trifluoromethoxy)phenyl)pyridin-3-yl)-[1,2,4]triazolo[1,5-a]pyridine]",0.73 µM
15,"c1ccc(-c2ncccc2-c2ccc3ncnn3c2)cc1 [compound 781, 6-(2-Phenylpyridin-3-yl)-[1,2,4]triazolo[1,5-a]pyridine]",5.86 µM
16,"Fc1ccc(-c2ncccc2-c2ccc3nc[nH]c3c2)cc1Cl [compound 782, 6-(2-(3-Chloro-4-fluorophenyl)pyridin-3-yl)-1H-benzo[d]imidazole]",0.332 µM
17,Clc1cccc(-c2ncccc2-c2ccc3nc[nH]c3c2)c1 [compound 783],0.231 µM

# From patent publication US10858335B2 (Rigel Pharmaceuticals, Inc., priority 2014, dated 2020)
